Tests used:
Assay in all cases: relative viability (nuclei count vs DMSO), 5 days (fraction); higher = more cells survive
XMD13-2 + Bortezomib = compound: C1CC1C(=O)NC2=NNC3=C2C=CC(=C3)C4=CC(=CC=C4)C(=O)NC5CC5 [XMD13-2] + CC(C)C[C@H](NC(=O)[C@H](Cc1ccccc1)NC(=O)c1cnccn1)B(O)O [Bortezomib] (partner 0.002 µM)
Method in brief: (§1)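 Lung cancer cell lines in 1536-well plates were dosed by pin tool the day after seeding, either with one drug alone or with a fixed anchor-drug dose plus five library-drug doses (not always all listed) in √10 steps. After 5 days, cells were fixed and their nuclei stained in one step (final 0.05% Triton X-100, 1% formaldehyde, 1 ug/ml Hoechst), then counted on 4× images. Relative viability is the nuclei count in treated wells divided by that in vehicle wells. Values are medians of duplicate plates.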

XMD13-2 + Pemetrexed = compound: C1CC1C(=O)NC2=NNC3=C2C=CC(=C3)C4=CC(=CC=C4)C(=O)NC5CC5 [XMD13-2] + Nc1nc2[nH]cc(CCc3ccc(C(=O)N[C@@H](CCC(=O)O)C(=O)O)cc3)c2c(=O)[nH]1 [Pemetrexed] (partner 0.2 µM)
Method in brief: as §1

ALW-II-49-7 + Alpelisib = compound: Cc1ccc(C(=O)Nc2cccc(C(F)(F)F)c2)cc1Nc1cncc(C(N)=O)c1 [ALW-II-49-7] + Cc1nc(NC(=O)N2CCC[C@H]2C(N)=O)sc1-c1ccnc(C(C)(C)C(F)(F)F)c1 [Alpelisib] (partner 2 µM)
Method in brief: as §1

Dasatinib + Luminespib = compound: Cc1nc(Nc2ncc(C(=O)Nc3c(C)cccc3Cl)s2)cc(N2CCN(CCO)CC2)n1 [Dasatinib] + CCNC(=O)c1noc(-c2cc(C(C)C)c(O)cc2O)c1-c1ccc(CN2CCOCC2)cc1 [Luminespib] (partner 0.01 µM)
Method in brief: as §1

NCI-H23
relative viability (XMD13-2 + Bortezomib; first compound 0.05 µM): 1.36
relative viability (XMD13-2 + Bortezomib; first compound 0.1581 µM): 0.988
relative viability (XMD13-2 + Bortezomib; first compound 0.5 µM): 1.04
relative viability (XMD13-2 + Bortezomib; first compound 1.581 µM): 0.987
relative viability (XMD13-2 + Bortezomib; first compound 5 µM): 1.22
relative viability (XMD13-2 + Pemetrexed; first compound 0.05 µM): 0.829
relative viability (XMD13-2 + Pemetrexed; first compound 0.1581 µM): 0.569
relative viability (XMD13-2 + Pemetrexed; first compound 0.5 µM): 0.747
relative viability (XMD13-2 + Pemetrexed; first compound 1.581 µM): 0.656
relative viability (XMD13-2 + Pemetrexed; first compound 5 µM): 0.799
relative viability (ALW-II-49-7 + Alpelisib; first compound 0.08 µM): 0.692
relative viability (ALW-II-49-7 + Alpelisib; first compound 0.253 µM): 0.803
relative viability (ALW-II-49-7 + Alpelisib; first compound 0.8 µM): 0.613
relative viability (ALW-II-49-7 + Alpelisib; first compound 2.53 µM): 0.726
relative viability (ALW-II-49-7 + Alpelisib; first compound 8 µM): 0.985
relative viability (Dasatinib + Luminespib; first compound 0.005 µM): 0.233
relative viability (Dasatinib + Luminespib; first compound 0.01581 µM): 0.195
relative viability (Dasatinib + Luminespib; first compound 0.05 µM): 0.217
relative viability (Dasatinib + Luminespib; first compound 0.1581 µM): 0.19
relative viability (Dasatinib + Luminespib; first compound 0.5 µM): 0.187

A-427
relative viability (XMD13-2 + Bortezomib; first compound 0.05 µM): 0.993
relative viability (XMD13-2 + Bortezomib; first compound 0.1581 µM): 1.06
relative viability (XMD13-2 + Bortezomib; first compound 0.5 µM): 0.993
relative viability (XMD13-2 + Bortezomib; first compound 1.581 µM): 0.858
relative viability (XMD13-2 + Bortezomib; first compound 5 µM): 0.857
relative viability (XMD13-2 + Pemetrexed; first compound 0.05 µM): 1.04
relative viability (XMD13-2 + Pemetrexed; first compound 0.1581 µM): 0.922
relative viability (XMD13-2 + Pemetrexed; first compound 0.5 µM): 0.995
relative viability (XMD13-2 + Pemetrexed; first compound 5 µM): 0.82
relative viability (ALW-II-49-7 + Alpelisib; first compound 0.08 µM): 1.25
relative viability (ALW-II-49-7 + Alpelisib; first compound 0.253 µM): 1.06
relative viability (ALW-II-49-7 + Alpelisib; first compound 0.8 µM): 1.13
relative viability (ALW-II-49-7 + Alpelisib; first compound 2.53 µM): 1.21
relative viability (ALW-II-49-7 + Alpelisib; first compound 8 µM): 1.12
relative viability (Dasatinib + Luminespib; first compound 0.005 µM): 0.742
relative viability (Dasatinib + Luminespib; first compound 0.01581 µM): 0.704
relative viability (Dasatinib + Luminespib; first compound 0.05 µM): 0.739
relative viability (Dasatinib + Luminespib; first compound 0.1581 µM): 0.673
relative viability (Dasatinib + Luminespib; first compound 0.5 µM): 0.486

NCI-H322M
relative viability (XMD13-2 + Bortezomib; first compound 0.05 µM): 1.34
relative viability (XMD13-2 + Bortezomib; first compound 0.1581 µM): 1.29
relative viability (XMD13-2 + Bortezomib; first compound 0.5 µM): 1.3
relative viability (XMD13-2 + Bortezomib; first compound 1.581 µM): 1.28
relative viability (XMD13-2 + Bortezomib; first compound 5 µM): 1.54
relative viability (XMD13-2 + Pemetrexed; first compound 0.05 µM): 0.659
relative viability (XMD13-2 + Pemetrexed; first compound 0.1581 µM): 0.614
relative viability (XMD13-2 + Pemetrexed; first compound 0.5 µM): 0.579
relative viability (XMD13-2 + Pemetrexed; first compound 5 µM): 0.608
relative viability (ALW-II-49-7 + Alpelisib; first compound 0.08 µM): 0.724
relative viability (ALW-II-49-7 + Alpelisib; first compound 0.253 µM): 0.739
relative viability (ALW-II-49-7 + Alpelisib; first compound 0.8 µM): 0.957
relative viability (ALW-II-49-7 + Alpelisib; first compound 2.53 µM): 0.759
relative viability (ALW-II-49-7 + Alpelisib; first compound 8 µM): 0.8
relative viability (Dasatinib + Luminespib; first compound 0.005 µM): 0.779
relative viability (Dasatinib + Luminespib; first compound 0.01581 µM): 0.491
relative viability (Dasatinib + Luminespib; first compound 0.05 µM): 0.38
relative viability (Dasatinib + Luminespib; first compound 0.1581 µM): 0.288
relative viability (Dasatinib + Luminespib; first compound 0.5 µM): 0.232

COR-L23
relative viability (XMD13-2 + Bortezomib; first compound 0.05 µM): 1.12
relative viability (XMD13-2 + Bortezomib; first compound 0.1581 µM): 0.994
relative viability (XMD13-2 + Bortezomib; first compound 0.5 µM): 1.04
relative viability (XMD13-2 + Bortezomib; first compound 1.581 µM): 1.08
relative viability (XMD13-2 + Bortezomib; first compound 5 µM): 1.09
relative viability (XMD13-2 + Pemetrexed; first compound 0.05 µM): 0.197
relative viability (XMD13-2 + Pemetrexed; first compound 0.1581 µM): 0.194
relative viability (XMD13-2 + Pemetrexed; first compound 0.5 µM): 0.204
relative viability (XMD13-2 + Pemetrexed; first compound 1.581 µM): 0.218
relative viability (XMD13-2 + Pemetrexed; first compound 5 µM): 0.197
relative viability (ALW-II-49-7 + Alpelisib; first compound 0.08 µM): 0.756
relative viability (ALW-II-49-7 + Alpelisib; first compound 0.253 µM): 0.536
relative viability (ALW-II-49-7 + Alpelisib; first compound 0.8 µM): 0.741
relative viability (ALW-II-49-7 + Alpelisib; first compound 2.53 µM): 0.898
relative viability (ALW-II-49-7 + Alpelisib; first compound 8 µM): 0.667
relative viability (Dasatinib + Luminespib; first compound 0.005 µM): 0.698
relative viability (Dasatinib + Luminespib; first compound 0.01581 µM): 0.531
relative viability (Dasatinib + Luminespib; first compound 0.05 µM): 0.7
relative viability (Dasatinib + Luminespib; first compound 0.1581 µM): 0.461
relative viability (Dasatinib + Luminespib; first compound 0.5 µM): 0.299

Reference: the supplement of paper PMC10307832
